The subject of one data set is BV-2. Nature of the data set: Antiinflammatory activity in mouse BV-2 cells assessed as inhibition of LPS-induced NO production at 10 uM preincubated for 1 hrs followed by LPS stimulation and measured after 24 hrs by Griess assay. The settings on record: time 25 hrs. Type of data set: functional. In general terms: Griess reagent forms a coloured azo dye with nitrite.

Data set [1] has as its system Hepatocyte. Nature of the data set: Hepatoprotective activity against CCL4-induced rat hepatocyte toxicity assessed as decrease in IL-1beta level at 1 uM preincubated for 30 mins followed by CCL4 addition and measured after 180 mins by ELISA. Also noted: scale not given: the % may be the effect or the level left. Type of data set: functional. The settings on record: time 210 min. Background: An ELISA detects its analyte on a solid surface through an enzyme-linked reagent.

The subject of data set [2] is Hepatocyte. Nature of the data set: Hepatoprotective activity against CCL4-induced rat hepatocyte toxicity assessed as decrease in TBARS level by measuring MDA formation at 1 uM preincubated for 30 mins followed by CCL4 addition and measured after 180 mins by TBARS method. Type of data set: functional. The settings on record: time 210 min. Also noted: scale not given: the % may be the effect or the level left.

Data set [3] relates to Hepatocyte. Nature of the data set: Hepatoprotective activity against CCL4-induced rat hepatocyte toxicity assessed as decrease in ALT level at 1 uM preincubated for 30 mins followed by CCL4 addition and measured after 180 mins by colorimetric method. The settings on record: time 210 min. Type of data set: functional. Also noted: scale not given: the % may be the effect or the level left.

Data set [4] concerns Hepatocyte. Nature of the data set: Hepatoprotective activity against CCL4-induced rat hepatocyte toxicity assessed as decrease in TNF-alpha level at 1 uM preincubated for 30 mins followed by CCL4 addition and measured after 180 mins by ELISA. Type of data set: functional. Also noted: scale not given: the % may be the effect or the level left. The settings on record: time 210 min.

The subject of data set [5] is J774.1. Nature of the data set: Cytotoxicity in mouse J774.1 cells assessed as reduction in cell viability at 100 microg/ml. The settings on record: at 100 µg/mL. Type of data set: toxicity, cell-based.
The subject of data set [6] is J774.1. Nature of the data set: Antiinflammatory activity in mouse J774.1 cells assessed as inhibition of LPS-induced NO production incubated for 48 hrs by Griess reagent based analysis. Type of data set: functional, cell-based. The settings on record: Mus musculus, J774.1, 48 h.
Data set [7] relates to J774.1. Nature of the data set: Antiinflammatory activity in mouse J774.1 cells assessed as inhibition of LPS-induced NO production at 100 microg/ml. Type of data set: functional.
The nature of data set [8]: Cytotoxicity against mouse RAW264.7 cells assessed as reduction in cell viability by MTT assay. Type of data set: toxicity, cell-based.
Data set [9] deals with RAW264.7. Nature of the data set: Antiinflammatory activity in mouse RAW264.7 cells assessed as inhibition of LPS-induced NO production preincubated for 0.5 hrs followed by LPS stimulation and measured after 24 hrs by Griess reagent based analysis. Type of data set: functional, cell-based.
Data set [10] deals with RAW264.7. Kind of data set: Antiinflammatory activity in mouse RAW264.7 cells assessed as inhibition of KLA-induced TNFalpha expression at 0.06 mg/ml and measured after 24 hrs by ELISA. Type of data set: functional.
Data set [11] deals with RAW264.7. Nature of the data set: Antiinflammatory activity in mouse RAW264.7 cells assessed as inhibition of LPS-induced NO production at 30 uM preincubated for 2 hrs followed by LPS stimulation and measured after 24 hrs by Griess method. Type of data set: functional. The settings on record: time 26 hrs.
Data set [12] deals with RAW264.7. Kind of data set: Antiinflammatory activity in mouse RAW264.7 cells assessed as inhibition of LPS-induced TNFalpha production at 10 uM preincubated for 2 hrs followed by LPS stimulation and measured after 24 hrs by ELISA. Type of data set: functional. The settings on record: time 26 hrs.
Data set [13] has as its system RAW264.7. Kind of data set: Antiinflammatory activity in mouse RAW264.7 cells assessed as inhibition of LPS-induced NO production at 10 uM preincubated for 2 hrs followed by LPS stimulation and measured after 24 hrs by Griess method. Type of data set: functional. The settings on record: time 26 hrs.
For data set [14], the system named is RAW264.7. Kind of data set: Antiinflammatory activity in mouse RAW264.7 cells assessed as inhibition of LPS-induced TNFalpha production at 100 uM preincubated for 2 hrs followed by LPS stimulation and measured after 24 hrs by ELISA. Type of data set: functional. The settings on record: time 26 hrs.
For data set [15], the system named is RAW264.7. Kind of data set: Antiinflammatory activity in mouse RAW264.7 cells assessed as inhibition of LPS-induced TNFalpha production at 3 uM preincubated for 2 hrs followed by LPS stimulation and measured after 24 hrs by ELISA. Type of data set: functional. The settings on record: time 26 hrs.
The subject of data set [16] is RAW264.7. Kind of data set: Antiinflammatory activity in mouse RAW264.7 cells assessed as inhibition of LPS-induced IL-6 production at 10 uM preincubated for 2 hrs followed by LPS stimulation and measured after 24 hrs by ELISA. Type of data set: functional. The settings on record: time 26 hrs.
Data set [17] has as its system RAW264.7. Nature of the data set: Antiinflammatory activity in mouse RAW264.7 cells assessed as inhibition of LPS-induced IL-6 production at 100 uM preincubated for 2 hrs followed by LPS stimulation and measured after 24 hrs by ELISA. Type of data set: functional. The settings on record: time 26 hrs.
Data set [18] deals with RAW264.7. Nature of the data set: Antiinflammatory activity in mouse RAW264.7 cells assessed as inhibition of LPS-induced NO production at 3 uM preincubated for 2 hrs followed by LPS stimulation and measured after 24 hrs by Griess method. The settings on record: time 26 hrs. Type of data set: functional.
Data set [19] relates to RAW264.7. Kind of data set: Antiinflammatory activity in mouse RAW264.7 cells assessed as inhibition of LPS-induced IL-6 production at 30 uM preincubated for 2 hrs followed by LPS stimulation and measured after 24 hrs by ELISA. The settings on record: time 26 hrs. Type of data set: functional.
For data set [20], the system named is RAW264.7. Nature of the data set: Antiinflammatory activity in mouse RAW264.7 cells assessed as inhibition of LPS-induced NO production at 100 uM preincubated for 2 hrs followed by LPS stimulation and measured after 24 hrs by Griess method. Type of data set: functional. The settings on record: time 26 hrs.
The subject of data set [21] is RAW264.7. Kind of data set: Antiinflammatory activity in mouse RAW264.7 cells assessed as inhibition of LPS-induced IL-6 production at 3 uM preincubated for 2 hrs followed by LPS stimulation and measured after 24 hrs by ELISA. Type of data set: functional. The settings on record: time 26 hrs.
The subject of data set [22] is RAW264.7. Kind of data set: Antiinflammatory activity in mouse RAW264.7 cells assessed as inhibition of LPS-induced TNFalpha production at 30 uM preincubated for 2 hrs followed by LPS stimulation and measured after 24 hrs by ELISA. The settings on record: time 26 hrs. Type of data set: functional.
Data set [23] concerns Rattus norvegicus. Nature of the data set: Antiinflammatory activity in rat model of carrageenan-induced hind paw edema assessed as reduction in paw thickness at 100 mg/kg,ip 30mins before carrageenin exposure and measured after 3 hrs. Type of data set: functional. Also noted: scale not given: the % may be the effect or the level left. Background: The carrageenan paw model is a standard test of acute inflammation.

Data set [24] is described as follows: Antioxidant activity assessed as nitroblue tetrazolium superoxide radical scavenging activity incubated for 10 mins by spectrophotometric analysis. Type of data set: functional.
Data set [25] is described as follows: Antioxidant activity assessed as nitroblue tetrazolium superoxide radical scavenging activity by spectrophotometric analysis. Type of data set: functional.
For a further data set, the system named is Mus musculus. Nature of the data set: Antiinflammatory activity in TPA-induced ear edema ICR mouse model assessed as inhibition of ear inflammation at 1 ug, TOP for 30 mins followed by TPA addition and measured after 6 hrs. Type of data set: functional. The settings on record: dose 1 µg, time 390 min, 6.5 h.
For data set [26], the system named is Rattus norvegicus. Kind of data set: Antiinflammatory activity in Wistar rat model of carrageenan-induced paw edema assessed as reduction in paw thickness at 10 mg/kg,po and measured after 5 hrs. Also noted: scale not given: the % may be the effect or the level left. Type of data set: functional.

These results are taken from ChEMBL document CHEMBL5233262, “Anti-inflammatory activity of naturally occuring diarylheptanoids - A review” (Bioorg Med Chem, 2021).

The inhibition is how much of the control response was suppressed. As for `Oc1ccc(CC[C@@H](O)C[C@H](O)CCc2ccc(O)cc2)cc1` [(+)-HANNOKINOL], in the data set on BV-2, the inhibition at 10 µM was 51.3%.

Regarding `COc1cc(CC[C@@H](CCCCc2cc(O)c(O)c(O)c2)OC(C)=O)cc(OC)c1O`, the Activity is given as 63.6% in the data set with Hepatocyte [1], 67.1% with Hepatocyte [2], 61.1% with Hepatocyte [3] and 38.6% with Hepatocyte [4].

A word on the IC50: it is the concentration needed to halve the response being measured. As for `COc1cc(O)c([C@@H](/C=C/C[C@@H](O)CCc2ccc(O)cc2)c2ccc(O)cc2)c2oc(-c3ccc(O)cc3)cc(=O)c12` (stereo in doubt; 112), the Activity with J774.1 [5] is on record as 85%. For the same compound, the 50% inhibitory concentration (IC50) in the data set on J774.1 [6] was determined as 104 µM. Further, the inhibition at 100 µg/mL with J774.1 [7] was 90%.

Take `O=C(/C=C/C=C/c1ccc(O)c(O)c1)CCc1ccc(O)c(O)c1`: the IC50 in [8] was found to be 36.4 µM; with RAW264.7 [9], 8.6 µM.

As for `O=C(CCc1ccccc1)C[C@@H](O)CCc1ccccc1`, in the data set on RAW264.7 [10], the inhibition at 60 µg/mL stood at 35%.

For the compound `COc1cc([C@H]2C[C@H](O)C[C@@H]([C@@H](O)Cc3ccc(O)cc3)O2)ccc1O`, the inhibition at 30 µM was 34% in the data set on RAW264.7 [11], 40% with RAW264.7 [19] and 41% in the data set with RAW264.7 [22]. Besides, the inhibition at 10 µM in the data set on RAW264.7 [12] was 41%; with RAW264.7 [13], 34%; in the data set with RAW264.7 [16], 40%. In addition, the inhibition at 100 µM in the data set with RAW264.7 [14] was found to be 41%; in the data set with RAW264.7 [17], 40%; in the data set with RAW264.7 [20], 34%. Also, the inhibition at 3 µM in the data set on RAW264.7 [15] came to 41%; in the data set on RAW264.7 [18], 34%; in the data set with RAW264.7 [21], 40%.

`CC(=O)Oc1ccccc1C(=O)O` [ASPIRIN]: the Activity in the data set on Rattus norvegicus [23] was 80%.

Turning to `COc1cc(O)c([C@@H](/C=C/C[C@@H](O)CCc2ccc(O)cc2)c2ccc(O)cc2)c(O)c1C(=O)/C=C/c1ccc(O)cc1`, the Activity in the data set with J774.1 [5] was 85%. Besides, the half-inhibitory concentration (IC50) in the data set on J774.1 [6] turned out to be 39 µM. In addition, the inhibition at 100 µg/mL with J774.1 [7] amounted to 90%.

For `COc1cc(CC[C@@H](C[C@H](O)[C@@H](O)Cc2ccc(O)cc2)O[C@@H]2OC[C@@H](O)[C@H](O)[C@H]2O)ccc1O`, the figures for the inhibition at 30 µM in the data set on RAW264.7 [11], with RAW264.7 [19] and in the data set on RAW264.7 [22] were 39%, 43% and 36%, respectively. For the same compound, the inhibition at 10 µM in the data set with RAW264.7 [12] was 36%; in the data set with RAW264.7 [13], 39%; with RAW264.7 [16] it was 43%. Also, the inhibition at 100 µM turned out to be 36% in the data set on RAW264.7 [14], 43% with RAW264.7 [17] and 39% with RAW264.7 [20]. The inhibition at 3 µM with RAW264.7 [15] stood at 36%; in the data set with RAW264.7 [18] it was 39%; in the data set on RAW264.7 [21] it was 43%.

For the compound `Oc1ncnc2[nH]ncc12` [ALLOPURINOL], the IC50 came to 3.9 µM in data set [24] and 8 µM in data set [25].

`COc1cc(CC[C@H](O)C[C@H](O)[C@@H](O)Cc2ccc(O)cc2)ccc1O`: the inhibition at 30 µM in the data set on RAW264.7 [11] stood at 43%; in the data set with RAW264.7 [19], 57%; in the data set with RAW264.7 [22] it was 39%. In addition, the inhibition at 10 µM stood at 39% with RAW264.7 [12], 43% with RAW264.7 [13] and 57% with RAW264.7 [16]. Also, the inhibition at 100 µM in the data set with RAW264.7 [14] is 39%; in the data set with RAW264.7 [17], 57%; in the data set with RAW264.7 [20] it was 43%. Further, the values for the inhibition at 3 µM in the data set on RAW264.7 [15], in the data set with RAW264.7 [18] and in the data set with RAW264.7 [21] were 39%, 43% and 57%, respectively.

Regarding `O=C(CCc1ccccc1)C[C@H](O)CCc1ccccc1`, the ID50 with Mus musculus came to 2.1 µmol. Moreover, in the data set on Rattus norvegicus [26], the Activity is given as 6.9%.
